Measured values from patent publication US9637470B2, “Treatment for substance use disorders and stress disorders” (Baylor College of Medicine, priority 2013, dated 2017).
Entries after “also recorded” stand apart in the source; their conditions may differ.

Key:
PK parameters in dog = details: in vivo
AMES = assay: Genotoxicity testing, AMES
5-HT2B = 5-HT2B (Homo sapiens, UniProt P41595); assay: Functional activity at 5-HT2B receptor
From the text: (§1) Binding at σ1 is not problematic, as SSRIs are known to have similar activities.

PK parameters in monkey = details: in vivo
healthy volunteers [1] = assay: Single ascending dose study in healthy volunteers; assay type: in vivo, human
Protocol: A single ascending dose, double-blind, placebo controlled study enrolled 50 participants divided into 10 per dosing group. In each group of 10 volunteers, 7 received active medication and 3 received placebo. The doses tested were 10, 25, 75, 150, and 300 mg. […] Across most doses, the elimination half-life was […].

[2] = test system: alcohol preferring P rats; assay: Binge alcohol / sucrose operant drinking in alcohol preferring P rats; assay type: in vivo, rat
Protocol: Animals were habituated to the gavage procedures by administering deionized water alone over a number of experimental sessions.
Animals were tested in 30 individual standard operant chambers (Coulbourn Instruments, Inc., Lehigh Valley, Pa.). The operant apparatus contained two levers, two dipper manipulanda, a cue light over each lever, and a house light. The dipper cup delivered either 10% (v/v) alcohol or 1% (w/v) sucrose reinforcers in a volume of 0.1 ml. To initiate excessive “binge” alcohol drinking, rats were adapted to a 12 h:12 h light/dark cycle which began at 4:30 pm (lights off) and lasted to 4:30 am (lights on). Rats were trained to orally self-administer EtOH for daily 30 min sessions under an FR1 schedule employing the sucrose fading technique. After a period of stabilization, the response requirement was then increased to an FR4 schedule. Responding was considered stable when responses were within ±20% of the average responses for five consecutive days, which took approximately 8 days. During the stabilization procedures, the animals were never deprived of food or fluid. Other cohorts of rats were given a 1% (w/v) concentration of sucrose and trained in an identical manner under the FR1, then FR4, schedule. […] Self-administration was assessed in 3×30 min FR4 operant sessions spaced 1 h apart during the dark cycle. […]

[3] = Human pharmacokinetic studies; details: in vivo, read-out: elimination half-life (converted)
Protocol: These studies will use double-blind, placebo-controlled experimental designs. Human pharmacokinetic studies indicate that EC2 has an elimination half-life of approximately 7 hours, allowing twice daily dosing.

[4] = ADM&E studies: stability and protein binding; assay type: in vitro ADME
rats = assay: Irwin test for neurotoxicity in rats; assay type: in vivo, rat; details: up to 90 mg/kg
[5] = PK, distribution and excretion in rat; assay type: in vivo; details: for half-life: in vivo
[6] = molecular target: recombinant human norepinephrine transporter protein (NET) (Homo sapiens, UniProt P23975); assay: IC50 binding profile, competitive inhibition assay, NET
Protocol: (§2) Amitifadine and DOV 102,677 are enantiomers and differ only in the stereochemistry of the cyclopropyl pyrrolidine carbon to which the dichlorophenyl group is bonded. In addition to the structural differences, the compounds differ greatly in their IC50 binding profiles at the three corresponding monoamine transporter proteins. The IC50 binding profiles were measured for each of the compounds in Table 5 by competitive inhibition assays using recombinant human serotonin transporter protein, recombinant human norepinephrine transporter protein, and recombinant human dopamine transporter protein Compounds were screened at a range of concentrations and were fit to a curve to determine IC50 values, the concentration at which 50% inhibition occurs.

σ1 = σ1 (Homo sapiens, UniProt Q99720); assay: Receptor binding studies, sigma σ1; details: at 10 uM
From the text: as §1

healthy volunteers [7] = assay: Multiple ascending dose study in healthy volunteers; assay type: in vivo, human; details: multiple dose
Protocol: (§3) This double-blind, placebo controlled study enrolled 50 participants divided into 10 per dosing group. In each group of 10, 7 received active medication and 3 received placebo to maintain the blind. The doses tested were 25 mg BID, 75 mg QD, 50 mg BID, 75 mg BID, and 100 mg BID.

[8] = as above; assay type: in vivo, human; details: human, plasma, daily doses up to 11 days, for most doses, read-out: elimination half-life during chronic treatment (converted)
Protocol: as §3

[9] = molecular target: recombinant human dopamine transporter protein (DAT) (Homo sapiens, UniProt Q01959); assay: IC50 binding profile, competitive inhibition assay, DAT
Protocol: as §2

[10] = Chronic (13 week) toxicity testing in dogs; details: dog, in vivo, read-out: no adverse effects level (NOAEL)
CYP450 2D6 = CYP450 2D6 (Homo sapiens, UniProt P10635); assay: CYP450 inhibition, 2D6; assay type: in vitro ADME; details: at 10 uM
[11] = Chronic (13 week) toxicity testing in rats; details: rat, in vivo, read-out: no adverse effects level (NOAEL)
[12] = molecular target: recombinant human serotonin transporter protein (SERT) (Homo sapiens, UniProt P31645); assay: IC50 binding profile, competitive inhibition assay, SERT
Protocol: as §2

mouse lymphoma = assay: Genotoxicity testing, mouse lymphoma chromosome aberration

Sequence of 5-HT2B (P41595 whole entry, species assumed): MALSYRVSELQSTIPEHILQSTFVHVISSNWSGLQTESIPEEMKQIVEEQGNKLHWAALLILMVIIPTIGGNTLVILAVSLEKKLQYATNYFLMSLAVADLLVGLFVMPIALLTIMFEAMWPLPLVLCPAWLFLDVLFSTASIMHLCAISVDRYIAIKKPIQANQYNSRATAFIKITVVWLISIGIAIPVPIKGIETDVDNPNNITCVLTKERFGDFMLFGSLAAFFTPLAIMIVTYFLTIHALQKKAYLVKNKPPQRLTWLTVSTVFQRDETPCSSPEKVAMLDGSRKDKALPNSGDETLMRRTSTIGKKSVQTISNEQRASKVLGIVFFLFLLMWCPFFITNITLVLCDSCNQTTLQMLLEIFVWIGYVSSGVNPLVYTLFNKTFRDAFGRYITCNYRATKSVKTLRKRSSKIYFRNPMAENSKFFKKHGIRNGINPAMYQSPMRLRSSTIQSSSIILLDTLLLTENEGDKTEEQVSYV
Sequence of σ1 (Q99720 whole entry): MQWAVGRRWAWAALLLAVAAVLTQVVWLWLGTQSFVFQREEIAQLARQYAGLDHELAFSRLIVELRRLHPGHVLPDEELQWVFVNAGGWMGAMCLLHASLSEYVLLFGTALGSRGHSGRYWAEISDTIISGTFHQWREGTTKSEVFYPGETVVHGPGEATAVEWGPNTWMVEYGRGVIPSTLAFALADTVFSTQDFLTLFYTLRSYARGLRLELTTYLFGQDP
Sequence of recombinant human norepinephrine transporter protein (NET) (P23975 whole entry): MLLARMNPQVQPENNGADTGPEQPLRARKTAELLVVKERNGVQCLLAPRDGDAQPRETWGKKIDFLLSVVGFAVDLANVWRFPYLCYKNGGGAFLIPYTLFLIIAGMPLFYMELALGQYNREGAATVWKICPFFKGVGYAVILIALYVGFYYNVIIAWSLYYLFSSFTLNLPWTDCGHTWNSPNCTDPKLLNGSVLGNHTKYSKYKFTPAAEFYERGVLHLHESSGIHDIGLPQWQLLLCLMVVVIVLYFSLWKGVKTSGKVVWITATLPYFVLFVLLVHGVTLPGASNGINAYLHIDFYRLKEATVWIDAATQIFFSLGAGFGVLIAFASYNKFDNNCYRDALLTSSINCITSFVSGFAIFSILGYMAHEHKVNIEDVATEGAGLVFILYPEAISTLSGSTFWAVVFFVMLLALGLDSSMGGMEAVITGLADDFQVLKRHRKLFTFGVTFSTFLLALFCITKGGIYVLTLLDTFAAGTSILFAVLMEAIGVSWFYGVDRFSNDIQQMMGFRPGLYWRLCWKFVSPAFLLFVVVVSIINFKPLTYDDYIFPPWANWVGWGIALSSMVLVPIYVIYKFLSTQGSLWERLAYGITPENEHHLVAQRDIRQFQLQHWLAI
Sequence of recombinant human dopamine transporter protein (DAT) (Q01959 whole entry): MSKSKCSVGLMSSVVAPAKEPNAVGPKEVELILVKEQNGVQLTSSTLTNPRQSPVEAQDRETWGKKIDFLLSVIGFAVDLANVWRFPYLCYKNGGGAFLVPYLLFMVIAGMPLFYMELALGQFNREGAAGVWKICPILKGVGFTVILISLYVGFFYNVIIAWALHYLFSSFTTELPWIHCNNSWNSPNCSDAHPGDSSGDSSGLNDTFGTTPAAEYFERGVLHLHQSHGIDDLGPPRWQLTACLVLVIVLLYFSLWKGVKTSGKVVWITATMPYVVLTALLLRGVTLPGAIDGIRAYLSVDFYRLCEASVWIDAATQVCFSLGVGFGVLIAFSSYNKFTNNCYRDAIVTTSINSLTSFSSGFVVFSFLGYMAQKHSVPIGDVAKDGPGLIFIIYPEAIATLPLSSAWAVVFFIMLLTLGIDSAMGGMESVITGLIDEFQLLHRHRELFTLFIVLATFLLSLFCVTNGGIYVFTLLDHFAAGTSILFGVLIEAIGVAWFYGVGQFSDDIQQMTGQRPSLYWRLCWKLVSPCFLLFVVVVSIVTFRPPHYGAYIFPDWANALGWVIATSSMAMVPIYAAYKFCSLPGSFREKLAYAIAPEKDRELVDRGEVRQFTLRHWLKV
Sequence of recombinant human serotonin transporter protein (SERT) (P31645 whole entry): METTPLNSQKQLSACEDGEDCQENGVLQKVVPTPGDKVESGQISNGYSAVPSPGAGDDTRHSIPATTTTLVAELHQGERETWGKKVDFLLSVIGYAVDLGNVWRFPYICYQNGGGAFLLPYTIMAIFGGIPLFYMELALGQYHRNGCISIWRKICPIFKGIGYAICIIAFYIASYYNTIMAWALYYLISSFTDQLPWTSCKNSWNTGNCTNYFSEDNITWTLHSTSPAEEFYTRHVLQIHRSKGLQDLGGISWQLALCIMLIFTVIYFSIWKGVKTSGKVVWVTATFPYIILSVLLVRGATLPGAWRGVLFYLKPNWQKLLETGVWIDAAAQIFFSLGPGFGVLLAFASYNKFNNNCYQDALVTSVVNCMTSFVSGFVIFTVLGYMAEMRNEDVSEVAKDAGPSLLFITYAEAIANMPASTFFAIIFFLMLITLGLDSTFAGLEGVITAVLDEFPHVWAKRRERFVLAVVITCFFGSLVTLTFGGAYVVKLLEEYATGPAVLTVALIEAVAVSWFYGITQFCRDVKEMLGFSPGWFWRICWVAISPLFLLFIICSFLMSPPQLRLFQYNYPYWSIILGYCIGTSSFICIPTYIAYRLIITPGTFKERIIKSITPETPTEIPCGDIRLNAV
Sequence of CYP450 2D6 (P10635 whole entry): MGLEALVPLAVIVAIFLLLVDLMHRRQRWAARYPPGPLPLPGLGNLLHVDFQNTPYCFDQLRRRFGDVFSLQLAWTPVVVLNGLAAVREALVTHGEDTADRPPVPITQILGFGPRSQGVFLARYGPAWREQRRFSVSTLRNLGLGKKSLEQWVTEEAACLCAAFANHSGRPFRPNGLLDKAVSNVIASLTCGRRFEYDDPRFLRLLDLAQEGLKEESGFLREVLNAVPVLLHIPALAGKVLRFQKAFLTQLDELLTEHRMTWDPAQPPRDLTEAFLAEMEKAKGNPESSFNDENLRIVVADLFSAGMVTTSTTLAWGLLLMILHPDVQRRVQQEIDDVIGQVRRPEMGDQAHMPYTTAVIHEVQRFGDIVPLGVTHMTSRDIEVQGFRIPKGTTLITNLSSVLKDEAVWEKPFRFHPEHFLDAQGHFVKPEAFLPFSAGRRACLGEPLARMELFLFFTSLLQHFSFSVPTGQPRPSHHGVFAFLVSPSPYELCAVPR

## c1ccc2cc([C@H]([C@H]3CCCNC3)n3ncnn3)ccc2c1 [Example Compound 2, (3S)-3-[(S)-naphthalen-2-yl(2H-tetrazol-2-yl)methyl]piperidine]
PK parameters in dog
  half-life: 2 h
PK parameters in dog; po, dogs
  bioavailability: 45%
AMES
  genotoxicity, AMES: negative
5-HT2B
  activity at 5-HT2B receptor: antagonist activity
PK parameters in monkey
  half-life: 5.8 h
PK parameters in monkey; po, monkeys
  bioavailability: 10%
Healthy volunteers [1]; single dose 10, 25, 75, 150, and 300 mg
  plasma concentration versus dose: proportional to dose
Healthy volunteers [1]; single dose, increasing in prevalence at 75 mg and higher
  primary adverse effects: nausea, dizziness, and headache
Healthy volunteers [1]; single doses up to 300 mg
  safety: safe
[2]; oral 15, 30, 40, 60, or 80 mg/kg, p<0.001
  binge operant responding for alcohol: significantly reduced
[2]; oral, p>0.05, except for the 80 mg/kg dose
  binge sucrose responding: failed to significantly reduce
[3]
  half-life: ~7 h
[4]
  protein binding: modest
  stability: stable
rats
  Irwin test for neurotoxicity: negative
[5]; brain, rat, after oral dosing, read-out: AUC ratio (brain/plasma)
  Kp: 0.45
[5]; rat, after oral administration
  accumulation in tissue: does not accumulate; also recorded: without significant accumulation
  tissue distribution: widely distributed across most tissues
[5]; rat, T1/2
  half-life: 3.7 h
[5]; rat, po, elimination half-life in brain
  half-life: 12.6 h
[5]; rat, po, elimination half-life in plasma
  half-life: 5 h
[5]; rodents
  route of excretion: mainly excreted in feces
[6]
  IC50: 10 nM
σ1
  inhibition of binding at σ1: 74 % inhibition
Healthy volunteers [7]
  effects on vital signs or on QTc: no effects
  primary adverse events: nausea, vomiting and headache
Healthy volunteers [7]; across all doses
  plasma concentration versus dose: proportional to dose
[8]
  half-life: ~6 h
[9]
  IC50: 11 nM
[10]
  NOAEL at 13 week: 6 mg/kg
CYP450 2D6
  inhibition of CYP450 2D6: does inhibit
[11]
  NOAEL at 13 week: 60 mg/kg
[12]
  IC50: 20 nM
Mouse lymphoma
  genotoxicity, mouse lymphoma chromosome aberration: negative
